Experimental data taken from patent publication US9540350B2, “1-substituted, 4-(substituted phenoxymethyl)-1,2,3-triazole compounds with antifungal properties and methods for preparation thereof” (FDC LIMITED, priority 2013, dated 2017).
Values after ≈ are worked out from the molar mass of the structure shown.

Legend:
C. albicans ATCC 24433 = test: Antifungal susceptibility, broth dilution MIC (CLSI M27-A2); format: cell-based; details: Candida albicans, ATCC24433; C. albicans ATCC 24433; broth dilution, RPMI 1640 with MOPS, 48 hours; read-out: Activity against organisms (MIC50) Ca01
Method: (§1) The compounds of Formula 1 were tested for antifungal activity against Candida albicans, C. glabrata, C. krusei, C. tropicalis, Cryptococcus neoformans, Aspergillus fumigatus, A. niger and Fusarium proliferatum. In vitro evaluation of antifungal activity was performed by determining the minimum inhibitory concentration (MIC) following standard methods (CLSI: Reference method for broth dilution antifungal susceptibility testing of yeasts; Approved standard, second edition M27-A2, 2002; CLSI: Reference method for broth dilution antifungal susceptibility testing of filamentous fungi; Approved standard M38-A, 2002). Anti-fungal susceptibility testing of these anti-fungal compounds was done by broth dilution method using RPMI 1640 medium with MOPS buffer. Known anti-fungal agent fluconazole was used as positive control. End points were determined after 48 hours visually and by using spectrophotometer wherever necessary. Different dilutions were tried and various sets of experiments performed. The activity parameters are enumerated in Table 4.

C. glabrata ATCC 90030 = test: as above; format: cell-based, Candida glabrata; details: Nakaseomyces glabratus, ATCC90030; C. glabrata ATCC 90030; broth dilution, RPMI 1640 with MOPS, 48 hours; read-out: Activity against organisms (MIC50) Cg01
Method: as §1

C. tropicalis ATCC 750 = test: as above; format: cell-based, Candida tropicalis; details: Candida tropicalis, ATCC750; C. tropicalis ATCC 750; broth dilution, RPMI 1640 with MOPS, 48 hours; read-out: Activity against organisms (MIC50) Ct01
Method: as §1

C. neoformans ATCC 34664 = test: as above; format: cell-based, Cryptococcus neoformans; details: Cryptococcus neoformans, ATCC34664; C. neoformans ATCC 34664; broth dilution, RPMI 1640 with MOPS, 48 hours; read-out: Activity against organisms (MIC50) Cn01
Method: as §1

[1] = system: F. proliferatum ATCC 10052; test: Antifungal susceptibility, broth dilution MIC (CLSI M38-A); format: cell-based; details: Fusarium proliferatum, ATCC10052; F. proliferatum ATCC 10052; broth dilution, RPMI 1640 with MOPS, 48 hours; read-out: Activity against organisms (MIC50) Fp01
Method: as §1

A. niger ATCC 16404 = test: as above; format: cell-based; details: Aspergillus niger, ATCC16404; A. niger ATCC 16404; broth dilution, RPMI 1640 with MOPS, 48 hours; read-out: Activity against organisms (MIC50) An01
Method: as §1

A. fumigatus ATCC 46645 = test: as above; format: cell-based; details: Aspergillus fumigatus, ATCC46645; A. fumigatus ATCC 46645; broth dilution, RPMI 1640 with MOPS, 48 hours; read-out: Activity against organisms (MIC50) Afm01
Method: as §1

C. krusei ATCC 6258 = test: Antifungal susceptibility, broth dilution MIC (CLSI M27-A2); format: cell-based, Candida krusei; details: Pichia kudriavzevii, ATCC6258; C. krusei ATCC 6258; broth dilution, RPMI 1640 with MOPS, 48 hours; read-out: Activity against organisms (MIC50) Ck01
Method: as §1

| MIC50 (C. albicans ATCC 24433) [µg/mL] | MIC50 (C. glabrata ATCC 90030) [µg/mL] | MIC50 (C. tropicalis ATCC 750) [µg/mL] | MIC50 (C. neoformans ATCC 34664) [µg/mL] | MIC50 [1] [µg/mL] | MIC50 (A. niger ATCC 16404) [µg/mL] | MIC50 (A. fumigatus ATCC 46645) [µg/mL] | MIC50 (C. krusei ATCC 6258) [µg/mL] | SMILES |
| --- | --- | --- | --- | --- | --- | --- | --- | --- |
| 0.25 (≈ 0.314 µM) | 0.5 (≈ 0.628 µM) | 1 (≈ 1.26 µM) | 1 (≈ 1.26 µM) | > 2 | > 2 | > 2 | 2 (≈ 2.51 µM) | O=C(/C=C/c1ccc(OCc2cn(CC(O)(Cn3cncn3)c3ccc(F)cc3F)nn2)cc1)c1ccc(OCC(O)(Cn2cncn2)c2ccc(F)cc2F)cc1 (stereo not drawn) [Compound 1B-10, (E)-1-(4-(2-(2,4-Difluorophenyl)-2-hydroxy-3-(m-1,2,4-triazol-1-yl)propoxy)phenyl)-3-(4-((1-(2-(2,4-difluorophenyl)-2-hydroxy-3-(1H-1,2,4-triazol-1-yl)propyl)-1H-1,2,3-triazol-4-yl)methoxy)phenyl)prop-2-en-1-one] |
| 1 (≈ 1.73 µM) | 0.12 (≈ 0.207 µM) | > 2 | 0.5 (≈ 0.864 µM) | > 2 | > 2 | > 2 | > 2 | CCCCCCCCCC/C=C/c1ccc(OCc2cn(CC(O)(Cn3cncn3)c3ccc(F)cc3F)nn2)cc1 (stereo not drawn) [Compound 1C-3, (E)-2-(2,4-Difluorophenyl)-1-(4-((4-(n-dodec-1-en-1-yl)phenoxy)methyl)-1H-1,2,3-triazol-1-yl)-3-(1H-1,2,4-triazol-1-yl)propan-2-ol] |
| 0.03 (≈ 0.0663 µM) | 0.06 (≈ 0.133 µM) | 0.12 (≈ 0.265 µM) | 0.5 (≈ 1.11 µM) | > 32 | 64 (≈ 141 µM) | 32 (≈ 70.7 µM) | 8 (≈ 17.7 µM) | C/C=C/c1ccc(OCc2cn(CC(O)(Cn3cncn3)c3ccc(F)cc3F)nn2)cc1 (stereo not drawn) [Compound 1C-4, (E)-2-(2,4-Difluorophenyl)-1-(4-((4-(prop-1-en-1-yl)phenoxy)methyl)-1H-1,2,3-triazol-1-yl)-3-(1H-1,2,4-triazol-1-yl)propan-2-ol] |
| 0.25 (≈ 0.606 µM) | 0.25 (≈ 0.606 µM) | 2 (≈ 4.85 µM) | 4 (≈ 9.7 µM) | > 128 | > 128 | > 128 | > 128 | OC(Cn1cncn1)(Cn1cc(COc2ccccc2)nn1)c1ccc(F)cc1F (stereo not drawn) [Compound 1D-1, 2-(2,4-Difluorophenyl)-1-(4-phenyloxymethyl-1H-1,2,3-triazol-1-yl)-3-(1H-1,2,4-triazol-1-yl)propan-2-ol] |
| 0.5 (≈ 1.14 µM) | 1 (≈ 2.27 µM) | 2 (≈ 4.54 µM) | 4 (≈ 9.08 µM) | > 128 | > 128 | > 128 | 64 (≈ 145 µM) | O=Cc1ccc(OCc2cn(CC(O)(Cn3cncn3)c3ccc(F)cc3F)nn2)cc1 (stereo not drawn) [Compound 1D-2, 4-((1-(2-(2,4-difluorophenyl)-2-hydroxy-3-(1H-1,2,4-triazol-1-yl)propyl)-1H-1,2,3-triazol-4-yl)methoxy)benzaldehyde] |
| > 4 | > 4 | > 4 | > 4 | > 4 | > 4 | > 4 | > 4 | COc1ccc(/C=C/C(=O)c2ccc(OC)cc2)cc1 [Compound 9A-1] |

Second part, the compound before the results:

| SMILES | MIC50 (C. albicans ATCC 24433) [µg/mL] | MIC50 (C. glabrata ATCC 90030) [µg/mL] | MIC50 (C. tropicalis ATCC 750) [µg/mL] | MIC50 (C. neoformans ATCC 34664) [µg/mL] | MIC50 [1] [µg/mL] | MIC50 (A. niger ATCC 16404) [µg/mL] | MIC50 (A. fumigatus ATCC 46645) [µg/mL] | MIC50 (C. krusei ATCC 6258) [µg/mL] |
| --- | --- | --- | --- | --- | --- | --- | --- | --- |
| CC/C=C/c1ccc(OCc2cn(CC(O)(Cn3cncn3)c3ccc(F)cc3F)nn2)cc1 (stereo not drawn) [Compound 1C-1, (E)-1-(4-((4-(But-1-en-1-yl)phenoxy)methyl)-1H-1,2,3-triazol-1-yl)-2-(2,4-difluorophenyl)-3-(1H-1,2,4-triazol-1-yl)propan-2-ol] | 0.03 (≈ 0.0643 µM) | 0.015 (≈ 0.0322 µM) | 0.25 (≈ 0.536 µM) | 0.12 (≈ 0.257 µM) | > 16 | 8 (≈ 17.1 µM) | 8 (≈ 17.1 µM) | 2 (≈ 4.29 µM) |
| CCCC/C=C/c1ccc(OCc2cn(CC(O)(Cn3cncn3)c3ccc(F)cc3F)nn2)cc1 (stereo not drawn) [Compound 1C-2, (E)-2-(2,4-Difluorophenyl)-1-(4-((4-(n-hex-1-en-1-yl)phenoxy)methyl)-1H-1,2,3-triazol-1-yl)-3-(1H-1,2,4-triazol-1-yl)propan-2-ol] | 0.12 (≈ 0.243 µM) | 0.06 (≈ 0.121 µM) | 1 (≈ 2.02 µM) | 0.25 (≈ 0.506 µM) | > 4 | 4 (≈ 8.09 µM) | 4 (≈ 8.09 µM) | 2 (≈ 4.04 µM) |
| CC(=O)c1ccc(OCc2cn(CC(O)(Cn3cncn3)c3ccc(F)cc3F)nn2)cc1 (stereo not drawn) [Compound 1D-3, 1-(4-(4-Acetylphenyloxy)methyl-1H-1,2,3-triazol-1-yl)-2-(2,4-difluorophenyl)-3-(1H-1,2,4-triazol-1-yl)propan-2-ol] | 0.5 (≈ 1.1 µM) | 1 (≈ 2.2 µM) | 4 (≈ 8.8 µM) | 4 (≈ 8.8 µM) | > 128 | > 128 | > 128 | 64 (≈ 141 µM) |
| CC(=O)Nc1ccc(OCc2cn(CC(O)(Cn3cncn3)c3ccc(F)cc3F)nn2)cc1 (stereo not drawn) [Compound 1D-4, 1-(4-(4-Acetylaminophenyloxy)methyl-1H-1,2,3-triazol-1-yl)-2-(2,4-difluorophenyl)-3-(1H-1,2,4-triazol-1-yl)propan-2-ol] | 32 (≈ 68.2 µM) | 32 (≈ 68.2 µM) | > 128 | > 128 | > 128 | > 128 | > 128 | > 128 |
| Cc1ccc(OCc2cn(CC(O)(Cn3cncn3)c3ccc(F)cc3F)nn2)cc1 (stereo not drawn) [Compound 1D-5, 2-(2,4-Difluorophenyl)-1-(4-(4-methylphenyloxy)methyl-1H-1,2,3-triazol-1-yl)-3-(1H-1,2,4-triazol-1-yl)propan-2-ol] | 0.12 (≈ 0.281 µM) | 0.03 (≈ 0.0704 µM) | 0.5 (≈ 1.17 µM) | 2 (≈ 4.69 µM) | > 128 | 64 (≈ 150 µM) | 64 (≈ 150 µM) | 8 (≈ 18.8 µM) |
| Cc1cc(C#N)c(N)c(C#N)c1-c1ccc(OCc2cn(CC(O)(Cn3cncn3)c3ccc(F)cc3F)nn2)cc1 (stereo not drawn) [Compound 1D-6, 3-Amino-4′-((1-(2-(2,4-difluorophenyl)-2-hydroxy-3-(1H-1,2,4-triazol-1-yl)propyl)-1H-1,2,3-triazol-4-yl)methoxy)-6-methylbiphenyl-2,4-dicarbonitrile] | 0.5 (≈ 0.881 µM) | 0.5 (≈ 0.881 µM) | 2 (≈ 3.52 µM) | 1 (≈ 1.76 µM) | > 8 | > 8 | > 8 | > 8 |
| C#CCOc1ccc(/C=C/C(=O)c2ccc(N3CCN(CCC)CC3)cc2)cc1 [Compound 6A-1, (E)-3-(4-(Prop-2-yn-1-yloxy)phenyl)-1-(4-(4-propylpiperazin-1-yl)phenyl)prop-2-en-1-one] | > 4 | > 4 | > 4 | > 4 | > 4 | > 4 | > 4 | > 4 |
| C#CCOc1ccc(/C=C/C(=O)c2ccc(N3CCN(CCCC)CC3)cc2)cc1 [Compound 6A-2] | > 4 | > 4 | > 4 | > 4 | > 4 | > 4 | > 4 | > 4 |
| C#CCOc1ccc(/C=C/C(=O)c2ccc(N3CCN(Cc4ccc(OC)cc4)CC3)cc2)cc1 [Compound 6A-4] | > 8 | > 8 | > 8 | > 8 | > 8 | > 8 | > 8 | > 8 |
| OCc1cn(CC(O)(Cn2cncn2)c2ccc(F)cc2F)nn1 (stereo not drawn) [Compound 8A-1, 2-(2,4-Difluorophenyl)-1-(4-(hydroxymethyl)-1H-1,2,3-triazol-1-yl)-3-(1H-1,2,4-triazol-1-yl)propan-2-ol] | 32 (≈ 95.2 µM) | 2 (≈ 5.95 µM) | > 128 | > 128 | > 128 | > 128 | > 128 | > 128 |
| COc1ccc(/C=C/C(=O)c2ccc(O)cc2)cc1 [Compound 9A-2] | > 32 | > 32 | > 32 | > 32 | > 32 | > 32 | > 32 | > 32 |
| COc1ccc(C(=O)/C=C/c2ccc(Cl)cc2)cc1 [Compound 9A-3] | > 4 | > 4 | > 4 | > 4 | > 4 | > 4 | > 4 | > 4 |
